Assay results as given in paper PMC9268615, “Identification of Anti-Proliferative Compounds from Genista monspessulana Seeds through Covariate-Based Integration of Chemical Fingerprints and Bioactivity Datasets” (Molecules, 2022).
pIC50: −log10 of the molar value. “And” between values parts separate entries of the source, which are not always exact repeats. Equal entries are not always repeated. Where two headings read alike, the source gives them in different places.

Tests used:
[1] = tested on: SiHa (human cervical carcinoma); assay: MTT cell viability assay, SiHa; type: cell-based; details: for pIC50: Homo sapiens, SiHa, pure compounds, MTT, 48 h incubation
Description: (§1) Human prostatic adenocarcinoma (PC-3, ATCC CRL-7934), human lung adenocarcinoma (A549, ATCC CCL-185), and human cervical carcinoma (SiHa, ATCC HTB-35) cancer cell lines and normal mouse fibroblasts (L929, ATCC CRL-6364) were maintained in a humidified atmosphere with 5% CO2 at 37 °C, and grown as a monolayer culture in Dulbecco’s Modified Eagle Medium (DMEM) medium with 10% (v/v) fetal bovine serum (FBS), 1% (v/v) penicillin, and 1% (v/v) streptomycin. The anti-proliferative effects of G. monspessulana extracts and isolated compounds were measured according to a reported method. Cell suspension (100 µL, 5 × 10^3 cells/well) was inoculated in 96-well plates and cultured for 24 h. After that, the culture medium was replaced with a serum-free medium (100 µL) containing different concentrations of treatments (0.8–500 µg/mL for extracts and 0.16–100 µg/mL for pure compounds). Extracts and compounds were measured in triplicate. A PBS-containing free medium was used as a blank, 1% (w/v) bovine serum albumin-amended medium as negative control (100% survival), and curcumin (0.16–100 µg/mL) was used as the positive control. After 48 h of incubation, the cell viability was assessed by adding MTT (10 µL, 5 mg/mL) to each well, and the plates were subsequently incubated under 5% CO2 at 37 °C for 3 h. Formazan crystals were dissolved with 100 µL of DMSO. Absorbance was measured at 570 nm using a Varioskan LUX 96-well plate reader (Thermo Fisher Scientific, Waltham, MA, USA). The anti-proliferative effects were expressed as half-maximal inhibitory concentration (IC50) in µg/mL (extracts) and µM (compounds). The IC50 values were calculated from the dose-response curves through non-linear regression using GraphPad 5.0 (GraphPad Software, San Diego, CA, USA).

[2] = tested on: PC-3 (human prostate adenocarcinoma); assay: MTT cell viability assay, PC-3; type: cell-based; details: for pIC50: pure compounds, MTT, 48 h incubation
Description: as §1

[3] = tested on: A549 (human lung carcinoma); assay: MTT cell viability assay, A549; type: cell-based; details: for pIC50: Homo sapiens, A549, pure compounds, MTT, 48 h incubation
Description: as §1

[4] = tested on: L929 (normal mouse fibroblasts); assay: MTT cell viability assay, L929 fibroblasts; type: cell-based; details: 48 h incubation; for pIC50: Mus musculus, L929, pure compounds; for IC50 L929: pure compounds
Description: as §1

[5] = tested on: SMMC-7721 (hepatocellular carcinoma) cells; design: method as in PMID 29330507; details: cited from earlier work
MCF-7 cell line = details: cited from earlier work
MDA-MB cell line = details: cited from earlier work
[6] = tested on: HepG2 (human hepatocellular carcinoma) cell line; details: cited from earlier work
FaDu cell line = details: cited from earlier work
A549 cell line = details: read-out: IC50 A549; cytotoxic through apoptosis induction; cited from earlier work
[7] = tested on: various cancer cell lines (KB, P-388, HL-60, K-562, MOLT-4, H2108, H1299, MRC-5, 786-O, Caki1, SN12C, SH-SY5Y, A375, SK-MEL-1, Eca109, KYSE30, HCT-116, SW480); design: method as in PMID 31551770; details: cytotoxicity; cited from earlier work
PC-3 = tested on: PC-3; design: method as in doi:10.1590/S0103-50532012000300015; details: cited from earlier work
HL-60 cell line [8] = tested on: HL-60 cell line; design: method as in PMID 16887297; details: cytotoxic activity; cited from earlier work
MOLT-4 cell line = tested on: MOLT-4 cell line; design: method as in PMID 23850732; details: cited from earlier work
K-562 cell line = tested on: K-562 cell line; design: method as in PMID 23850732; details: cited from earlier work
HL-60 cell line [9] = tested on: HL-60 cell line; design: method as in PMID 23850732; details: cited from earlier work
[10] = tested on: MDA-MB-231 (human breast cancer cell line); design: method as in PMID 30467293; details: vs cytisine and (−)-maackiain; cited from earlier work
[11] = tested on: MCF-7 (human breast cancer cell line); design: method as in PMID 30467293; details: vs cytisine and (−)-maackiain; cited from earlier work

Compound	pIC50 [1]	pIC50 ([2]; Homo sapiens, 48 h)	pIC50 [3]	pIC50 [4]	other results
O=C1CCC=C2C3CC(CN12)C1CCCCN1C3 (single isomer, unassigned; (+)) [Compound 7, (+)-5,6-dehydrolupanine]	< 3.39	4.50	< 3.39	4.07	
CN1CC2CC(C1)c1cccc(=O)n1C2 (single isomer, unassigned; (-)) [Compound 5, (–)-N-methylcytisine]	< 3.31	4.55	4.44	4.04	proliferation of SMMC-7721 cells [5]: can inhibit the proliferation
O=c1cccc2n1C[C@@H]1CNC[C@H]2C1 [Compound 1, (–)-cytisine]	3.45	> 4.73	4.37	3.99	effect on MCF-7 cell line (MCF-7 cell line): not affected; pIC50 [2]: 4.80; effect on MDA-MB cell line (MDA-MB cell line): not affected; effect on HepG2 cell line [6]: inducing mitochondrial-mediated apoptosis; effect on FaDu cell line (FaDu cell line): not affected; pIC50 (A549 cell line): 4.57
CC1(C)C=Cc2c(cc3occ(-c4ccc(O)cc4)c(=O)c3c2O)O1 [Compound 2, alpinumisoflavone]	4.71	> 4.73	< 3.52	< 3.53	pIC50 [2]: 4.73; pIC50 [7]: > 4.15; IC50 L929 [4]: inactive; pIC50 (PC-3): > 4.52
O=C1[C@@H]2C[C@H](CN3CCCC[C@@H]23)[C@H]2CCCCN12 [Compound 3, (+)-aphylline]	< 3.39	4.67	< 3.39	4.65	
O=c1cccc2n1C[C@H]1C[C@@H]2CN2CCCC[C@H]12 [Compound 4, (–)-anagyrine]	< 3.39		< 3.39	4.44	pIC50 ([2]; Homo sapiens): 4.47; pIC50 (HL-60 cell line [8]): 4.74
CC(C)=CCc1c(O)cc2occ(-c3ccc(O)cc3)c(=O)c2c1O [Compound 6, wighteone]	< 3.53	4.46	< 3.53	< 3.53	pIC50 (MOLT-4 cell line): < 4.15; pIC50 (K-562 cell line): < 4.15; pIC50 (HL-60 cell line [9]): < 4.15; IC50 L929 [4]: inactive
CC1(C)C=Cc2c(cc3occ(-c4ccc(O)c(CN5C[C@@H]6C[C@H](C5)c5cccc(=O)n5C6)c4)c(=O)c3c2O)O1 [Compound 8, (–)-3′-(N-cytisine)methylalpinumisoflavone]	4.76		4.33	3.41	selectivity index (SI = IC50 normal cells/IC50 cancer cells) SiHa ([1]; L929 vs SiHa): 22.0; pIC50 ([2]; Homo sapiens): 5.00; selectivity index (SI = IC50 normal cells/IC50 cancer cells) PC-3 ([2]; L929 vs PC-3): 38.1 and > 30; selectivity index (SI = IC50 normal cells/IC50 cancer cells) A549 ([3]; L929 vs A549): 8.2
COc1cc(/C=C/C(=O)CC(=O)/C=C/c2ccc(O)c(OC)c2)ccc1O [curcumin, reference compound]	5.19	5.02	5.08	3.98	
tonkinensine B					fold better activity than respective precursors, MDA-MB-231 [10]: 2–3 fold; fold better activity than respective precursors, MCF-7 [11]: 2–3 fold
